Assay results from patent publication US20190203253A1, “METHODS OF IDENTIFYING AND TREATING CANCER PATIENTS WITH AN EPHB6 DEFICIENCY” (University of Saskatchewan, priority 2016, published 2019).

Key:
MDA-B6 and MDA-pc3 cells = assay: Cell survival (resazurin) with MET inhibitor, MDA-MB-231-derived cells; type: cell-based, human; conditions: increasing concentrations, 24 hours, vs MDA-B6 (FIG. 10A)
Experimental: (§1) FIG. 10. Analysis of EPHB6-MET SL interaction. A and B, MDA-B6 and MDA-pc3 (A) or BT2O-NS and BT20-shB6 (B) cells were treated for 24 hours with the indicated concentrations of MET inhibitor, ARQ197, or with matching concentrations of DMSO, as a control. Treated cells were stained with Resazurin for 2 h at 37° C. and cell survival was measured using a microplate reader. Data represent the analysis of triplicates and are shown as a percentage relative to matching DMSO controls. (*) Statistical analyses: Student's t test, P<0.05 for indicated points. All analyses represent one of at least three independent experiments.
(§2) As mentioned above, a number of potential candidates that predominantly function in signal transduction (FIG. 2G), including DDR2, SRC, ROCK2 and MET (Table 1), were identified. Further testing with a MET inhibitor, ARQ197, was conducted to evaluate its SL properties. MDA-B6 and MDA-pc3 cells, as well as BT20-NS and BT20-shB6 cells, obtained using a method similar as described above in Example 1, were treated with increasing concentrations of ARQ197.

[1] = test system: BT20-NS and BT20-shB6 cells; assay: Cell survival (resazurin) with MET inhibitor, BT-20-derived cells; type: cell-based, human; conditions: increasing concentrations, 24 hours, vs BT20-NS (FIG. 10B)
Experimental: as §1, §2

[2] = test system: co-cultured MDA-pc3 and MDA-B6 cells; assay: Co-cultured colour-coded cells with MET inhibitor (flow cytometry); type: cell-based, human; conditions: 0.3 μM, 24, 32 and 48 hours, 1:1 co-culture (FIG. 11)
Experimental: FIG. 11. MET inhibition preferentially suppresses EPHB6-deficient cells. Hygro-selected combinations of MDA-B6-GFP and MDA-pc3-RFP (A and B) or MDA-B6-RFP and MDA-pc3-GFP (C and D) cells were seeded in 1:1 ratio and treated with 0.3 μM concentration of Met receptor inhibitor, ARQ197, or with a matching volume of DMSO, as a solvent control for 24, 32, and 48 hours. Treated cells were analyzed by flow cytometry. Bar graphs are based on the analyses of triplicates and represent a suppression of ARQ197-treated cell populations as a percentage relative to matching DMSO controls. (*) Statistical analyses: Student's t test, P<0.05 for indicated points. All analyses represent one of at least three independent experiments. The skilled person in the art will understand that the drawings, described herein, are for illustration purposes only. The drawings are not intended to limit the scope of the applicants' teachings in any way.
as §2

[3] = test system: MDA-pc3 and MDA-B6 cells (MDA-MB-231); assay: Drug sensitivity assay (resazurin), SRC inhibitors, MDA-MB-231-derived cells; type: cell-based, human; conditions: MDA-pc3 vs MDA-B6, increasing concentrations, 72 h, resazurin (FIG. 4A, 4B)
Experimental: FIG. 4. […] C. […] All experiments were performed at least three times.

[4] = test system: BT-20 cells (EPHB6-targeting shRNA vs non-silencing shRNA); assay: Drug sensitivity assay (resazurin), SRC inhibitors, BT-20 cells with silenced EPHB6; type: cell-based, human; conditions: BT-20 with EPHB6-targeting shRNA vs non-silencing shRNA, 96 h (FIGS. 6A-6E)
Experimental: FIG. 6. SL relation between EPHB6 and SRC in BT-20 TNBC cells. A. Triple negative breast cancer cells, BT-20, were transduced with EPHB6-targeting shRNA (BT20-66-shRNA), or non-silencing shRNA (BT2O-NS). EPHB6 expression was analyzed by Western blotting with anti-EPHB6. Western blotting with anti-tubulin was used as a loading control. B. BT20-66-shRNA and BT2O-NS cells were cultured in 96-well plates with indicated concentrations of SU6656 or matching volumes of DMSO for 96 h. Cells were stained with resazurin and fluorescence was measured using a SpectraMax M5 plate reader to determine cell suppression. Five wells were analyzed per condition. […] C. […] Cells were stained with resazurin and fluorescence was measured using a SpectraMax M5 plate reader to determine cell suppression. Five wells were analyzed per condition. […] PI-stained cells were counted in at least 10 randomly captured frames. […] Stained cells were analyzed by flow cytometry and the FlowJo software. […]
MDA-MB-231 and BT-20 cell monolayers were incubated in 96-well plates for 72 h and 96 h, respectively, with indicated concentrations of KX2-391 or SU6656, or matching volumes of DMSO as a solvent control. Treated cells were stained using resazurin by following the manufacturer's instructions and fluorescence was measured using a SpectraMax M5 microplate reader.

SRC = SRC (Homo sapiens, UniProt P12931); assay: SRC inhibition in cells (anti-SRC immunoprecipitation, anti-phospho-SRC Western blot); type: cell-based; conditions: MDA-B6 cells, 20 μM, 40 minutes, 10% FBS (FIG. 9B)
SRC, sequence (P12931 whole entry): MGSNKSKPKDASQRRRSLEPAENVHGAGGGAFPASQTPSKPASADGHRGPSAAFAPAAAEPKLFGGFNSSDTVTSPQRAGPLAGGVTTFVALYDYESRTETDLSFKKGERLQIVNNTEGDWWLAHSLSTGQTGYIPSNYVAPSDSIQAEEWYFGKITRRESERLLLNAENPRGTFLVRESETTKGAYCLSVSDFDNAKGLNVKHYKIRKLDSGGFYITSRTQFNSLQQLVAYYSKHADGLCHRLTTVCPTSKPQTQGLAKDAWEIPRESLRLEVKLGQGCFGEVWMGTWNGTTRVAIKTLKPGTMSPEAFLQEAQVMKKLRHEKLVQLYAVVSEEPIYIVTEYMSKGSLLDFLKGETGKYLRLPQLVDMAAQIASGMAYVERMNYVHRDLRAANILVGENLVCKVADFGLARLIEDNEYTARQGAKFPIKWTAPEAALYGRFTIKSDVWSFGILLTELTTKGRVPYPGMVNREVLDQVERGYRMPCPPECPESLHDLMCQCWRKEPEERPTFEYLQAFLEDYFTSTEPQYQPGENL

Compound	cell survival of EPHB6-deficient MDA-pc3 cells (MDA-B6 and MDA-pc3 cells)	cell survival of BT20-shB6 cells [1]	suppression of cell populations in co-culture [2]	cell suppression relative to DMSO control, EPHB6-deficient vs EPHB6-expressing cells [3]	cell suppression after silencing of EPHB6 expression [4]	SRC inhibition (phospho-SRC) (SRC)
O=C1NC(=O)[C@@H](c2cn3c4c(cccc24)CCC3)[C@@H]1c1c[nH]c2ccccc12 [ARQ197]	decreased cell survival compared to MDA-B6 cells	decreased cell survival compared to BT-20 cells transduced with non-silencing shRNA	preferentially suppressed EPPBH6-deficient MDA-B6 cells			
CN(C)S(=O)(=O)c1ccc2c(c1)/C(=C/c1cc3c([nH]1)CCCC3)C(=O)N2 [SU6656]				preferentially suppressed EPHB6-deficient MDA-pc3 cells	strongly increased their suppression	efficiently inhibited
